Laboratory results taken from PubChem BioAssay (NCI).
Values joined by “and” are separate entries in the source; they are usually repeats but may differ in a detail not shown here. Identical values can stand only once.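 Test compounds were applied to cells in 96-well plates for 48 hours at 5 doses. At the GI50, growth is halved. TGI marks complete inhibition of growth.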

Tests used:
Experiment in all cases: NCI anticancer screen, dose series, 48 h
HCT-15 colon = test system: HCT-15 colon
CCRF-CEM leukemia = test system: CCRF-CEM leukemia
SN12C renal = test system: SN12C renal
SNB-19 CNS = test system: SNB-19 CNS
LOX IMVI melanoma = test system: LOX IMVI melanoma
HOP-62 NSCLC = test system: HOP-62 NSCLC
SK-MEL-28 melanoma = test system: SK-MEL-28 melanoma
NCI-H460 lung = test system: NCI-H460 lung
PC-3 prostate = test system: PC-3 prostate
MDA-MB-231 breast = test system: MDA-MB-231 breast

SMILES	GI50 (HCT-15 colon)	TGI (HCT-15 colon) [µM]	GI50 (CCRF-CEM leukemia)	TGI (CCRF-CEM leukemia) [µM]	GI50 (SN12C renal)	TGI (SN12C renal) [µM]	GI50 (SNB-19 CNS)	TGI (SNB-19 CNS) [µM]	GI50 (LOX IMVI melanoma)	TGI (LOX IMVI melanoma) [µM]	GI50 (HOP-62 NSCLC)	TGI (HOP-62 NSCLC)	GI50 (SK-MEL-28 melanoma)	TGI (SK-MEL-28 melanoma)	GI50 (NCI-H460 lung)	TGI (NCI-H460 lung) [µM]	GI50 (PC-3 prostate)	TGI (PC-3 prostate) [µM]	GI50 (MDA-MB-231 breast)	TGI (MDA-MB-231 breast) [µM]
CC[N+](CC)=c1sc2c(s1)C(c1ccc(Cl)cc1)Oc1ccc(Cl)cc1-2 (configuration not stated)	7.13 µM	21.5	0.665 µM	6.35	1.33 µM	3.33	0.487 µM	1.84	1.51 µM	3.22	1.22 µM	5.56 µM	1.32 µM	2.82 µM	0.503 µM	1.89	1.38 µM	3.28	1.93 µM	4.35
Oc1[nH]c2ccccc2c1N=Nc1ccccn1	–	> 100	–	58.8	–	> 100	–	> 100	–	> 100	–	91.7 µM	–	> 100 µM	–	35.6	–	> 100	–	38.1
C#CCOc1cccc(-c2ncnc3cc(NC(=O)CCl)ccc23)c1	0.0179 µM	1.71	0.0249 µM	–	0.115 µM	1.41	1.14 µM	4.86	0.0385 µM	1.34	2.36 µM	7.18 µM	1.56 µM	4.5 µM	0.038 µM	1.45	0.813 µM	4.84	0.481 µM	4.57
Cc1cc(S(=O)(=O)Nc2nc3cscc3c(=O)n2Cc2ccccc2)c(S)cc1Cl	56.8 µM	> 100	14 µM	> 100	16.6 µM	54.5	29.1 µM	> 100	23.2 µM	51.6	16.5 µM	39.3 µM	74.3 µM	> 100 µM	28.8 µM	> 100	35.6 µM	> 100	34 µM	> 100
COC(=O)CCc1c[nH]c2ccc(N(CCCl)CCCl)cc12	3.16 µM	> 59.3	0.6 µM	> 28.6	0.688 µM	36.4	3.43 µM	> 76.2	1.39 µM	> 36.2	1.04 µM	16.5 µM	10.5 µM	33.6 µM	0.322 µM	12.9	8.65 µM	> 73.4	20.1 µM	> 92.4
C=C1C(=O)O[C@@H]2C[C@@H](C)[C@@H]3C=CC(=O)[C@@]3(C)[C@@H](OC(=O)CC(=O)O[C@H]3[C@@H]4C(=C)C(=O)O[C@@H]4C[C@@H](C)[C@@H]4C=CC(=O)[C@]43C)[C@H]12	–	0.0773	–	0.0376	–	0.0763	–	1.73	–	0.069	–	1.18 µM	–	0.11 µM	–	0.361	–	0.436	–	1.32
CCc1cccc(C)c1NC(=O)c1sc2nc3c(cc2c1N)CCCCC3	3.17 µM	> 100	2.68 µM	> 100	6 µM	> 100	4.07 µM	> 100	5.3 µM	91.5	4.34 µM	> 100 µM	12 µM	> 100 µM	3.52 µM	26.6	3.19 µM	> 100	4.35 µM	> 100
FC(F)c1nc2ccccc2n1-c1nc(N2CCOCC2)nc(N2CCOCC2)n1	0.389 µM and 0.479 µM	> 100	0.495 µM and 0.556 µM	> 100	0.247 µM and 0.332 µM	> 100	1.28 µM and 1.74 µM	> 100	0.376 µM and 0.491 µM	–	0.495 µM and 1.1 µM	5.36 µM and 15.7 µM	0.174 µM and 0.244 µM	1.87 µM and 3.79 µM	0.276 µM and 0.303 µM	> 100	0.0722 µM and 0.113 µM	–	0.448 µM and 2.13 µM	–
COc1ccc(-c2cc(=O)c3ccc(C)nc3[nH]2)cc1	–	> 100	–	> 100	–	> 100	–	> 100	–	> 100	–	> 100 µM	–	> 100 µM	> 100 µM	> 100	> 100 µM	> 100	–	> 100
FC(F)(F)c1nc2nc(Cl)c(Cl)nc2n1CCCN1CCOCC1	–	> 100	–	> 100	–	> 100	–	> 100	–	> 100	–	> 100 µM	–	> 100 µM	–	> 100	–	> 100	–	> 100
CC(C)(C)C(=O)c1c(C(F)(F)F)n([O-])c2ccccc2[n+]1=O	0.365 µM	0.914	0.577 µM	2.34	0.665 µM	2.32	0.931 µM	2.91	0.396 µM	1.7	1.47 µM	2.94 µM	1.13 µM	6.12 µM	0.439 µM	1.52	0.817 µM	2.38	0.56 µM	2.3
O=S(=O)(Nc1ccccc1Cl)c1ccc(-c2cnc(C3CC3)o2)cc1	0.282 µM	> 100	0.388 µM	> 100	0.797 µM	> 100	0.642 µM	> 100	0.79 µM	> 90.8	0.501 µM	> 100 µM	3.34 µM	> 100 µM	0.397 µM	15.6	0.521 µM	> 100	1.92 µM	84.9
COc1cc(-c2cc3ncccc3c3nc(N)c4cccnc4c23)cc(OC)c1OC	0.44 µM	61.9	0.481 µM	30.2	1.01 µM	> 100	0.737 µM	> 100	0.482 µM	15.7	0.599 µM	87.1 µM	2.93 µM	> 100 µM	0.408 µM	16.8	0.579 µM	> 100	1.25 µM	> 100
O=C(CC(c1ccccc1)c1c(O)c2ccccc2oc1=O)c1ccccc1 (configuration not stated)	–	> 100	–	> 100	–	> 100	–	> 100	–	> 100	–	> 100 µM	–	> 100 µM	–	> 100	–	> 100	–	> 100
C=C(C)C(=O)O[C@H]1C[C@@]23O[C@@H]2CCC(=C[C@H]2OC(=O)C(=C)[C@H]12)COC3O (some centres not stated)	–	43.5	–	50.1	–	> 100	–	> 100	–	30.5	–	> 100 µM	–	–	–	> 100	–	> 100	–	> 100
